“And” between values parts separate entries of the source, which are not always exact repeats. Identical values can stand only once. Inconclusive results and toxic doses are left out. Where a SMILES comes first, the peptide text is derived from it. The star is where a group is joined. Cbz = O=C(OCc1ccccc1)*; Bn = c1ccc(C*)cc1
System: B6C3F1 mice, B16 melanoma ip, median survival T/C
Assay: NCI In Vivo Anticancer Drug Screen. Data for tumor model B16 Melanoma (intraperitoneal) in B6C3F1 mice
Conditions: endpoint: median survival time, higher = longer survival
Method: The antitumor activity of compounds was measured in mice bearing transplantable tumors. Survival or tumor size were measured and the results are expressed as the measurement made in the treated group (T) divided by the measurement made in the vehicle treated control group (C). The tumor model used in this assay is B16 Melanoma (intraperitoneal) in B6C3F1 mice

[1] = dose: 6.25 mg/kg/injection, schedule: Q01DX009 (ip), vehicle: saline
[2] = dose: 12.5 mg/kg/injection, schedule: Q01DX009 (ip), vehicle: saline
[3] = dose: 25.0 mg/kg/injection, schedule: Q01DX009 (ip), vehicle: Klucel (hydroxypropylcellulose) (HPC)
[4] = dose: 12.5 mg/kg/injection, schedule: Q01DX009 (ip), vehicle: Klucel (hydroxypropylcellulose) (HPC)
[5] = dose: 50.0 mg/kg/injection, schedule: Q01DX009 (ip), vehicle: Klucel (hydroxypropylcellulose) (HPC)
[6] = dose: 100.0 mg/kg/injection, schedule: Q01DX009 (ip), vehicle: Klucel (hydroxypropylcellulose) (HPC)
[7] = dose: 200.0 mg/kg/injection, schedule: Q01DX009 (ip), vehicle: Klucel (hydroxypropylcellulose) (HPC)
[8] = dose: 400.0 mg/kg/injection, schedule: Q01DX009 (ip), vehicle: Klucel (hydroxypropylcellulose) (HPC)

## COc1cccc2c1C(=O)c1c(O)c3c(c(O)c1C2=O)C[C@@](O)(C(=O)CO)C[C@@H]3OC1CC(NC(=O)C(N)CC(C)C)C(O)C(C)O1 (stereo partly drawn)
dose: 6.25 mg/kg/injection, schedule: Q01DX001 (ip), vehicle: saline
  T/C: 192 % of control
dose: 12.5 mg/kg/injection, schedule: Q01DX001 (ip), vehicle: saline
  T/C: 192 % of control
dose: 25.0 mg/kg/injection, schedule: Q01DX001 (ip), vehicle: saline
  T/C: 269 % of control
dose: 50.0 mg/kg/injection, schedule: Q01DX001 (ip), vehicle: saline
  T/C: 183 % of control

## CN(C)CCN1C(=O)c2cccc3cc(N)cc(c23)C1=O
dose: 1.0 mg/kg/injection, schedule: Q01DX009 (ip), vehicle: saline with Tween-80
  T/C: 113 % of control and 102 % of control
dose: 2.0 mg/kg/injection, schedule: Q01DX009 (ip), vehicle: acid diluted with saline
  T/C: 97 % of control
dose: 2.0 mg/kg/injection, schedule: Q01DX009 (ip), vehicle: saline with Tween-80
  T/C: 101 % of control and 102 % of control
dose: 4.0 mg/kg/injection, schedule: Q01DX009 (ip), vehicle: acid diluted with saline
  T/C: 106 % of control
dose: 4.0 mg/kg/injection, schedule: Q01DX009 (ip), vehicle: saline with Tween-80
  T/C: 112 % of control and 113 % of control and 120 % of control
dose: 8.0 mg/kg/injection, schedule: Q01DX009 (ip), vehicle: acid diluted with saline
  T/C: 111 % of control
dose: 8.0 mg/kg/injection, schedule: Q01DX009 (ip), vehicle: saline with Tween-80
  T/C: 116 % of control and 118 % of control and 120 % of control
dose: 16.0 mg/kg/injection, schedule: Q01DX009 (ip), vehicle: acid diluted with saline
  T/C: 110 % of control
dose: 16.0 mg/kg/injection, schedule: Q01DX009 (ip), vehicle: saline with Tween-80
  T/C: 87 % of control

## NC(=O)Oc1cc(OC(N)=O)cc(N(CCCl)CCCl)c1
dose: 3.12 mg/kg/injection, schedule: Q01DX009 (ip), vehicle: Klucel (hydroxypropylcellulose) (HPC)
  T/C: 115 % of control
dose: 6.25 mg/kg/injection, schedule: Q01DX009 (ip), vehicle: Klucel (hydroxypropylcellulose) (HPC)
  T/C: 107 % of control
[1]
  T/C: 91 % of control
[2]
  T/C: 96 % of control
[3]
  T/C: 170 % of control
dose: 25.0 mg/kg/injection, schedule: Q01DX009 (ip), vehicle: saline
  T/C: 104 % of control
dose: 50.0 mg/kg/injection, schedule: Q01DX009 (ip), vehicle: saline
  T/C: 104 % of control
dose: 100.0 mg/kg/injection, schedule: Q01DX009 (ip), vehicle: saline
  T/C: 102 % of control

## CC(C)CC(NC(=O)C(CSCc1ccccc1)NC(=O)OCc1ccccc1)C(N)=O (stereo not drawn) (Cbz-Cys(Bn)-Leu-NH2; configuration not given here)
[4]
  T/C: 107 % of control
[3]
  T/C: 98 % of control
[5]
  T/C: 100 % of control

## O=C1c2ccc(Br)cc2-c2cc(Br)ccc21
dose: 6.25 mg/kg/injection, schedule: Q01DX009 (ip), vehicle: saline with Tween-80
  T/C: 98 % of control
dose: 12.5 mg/kg/injection, schedule: Q01DX009 (ip), vehicle: saline with Tween-80
  T/C: 98 % of control
dose: 25.0 mg/kg/injection, schedule: Q01DX009 (ip), vehicle: saline with Tween-80
  T/C: 93 % of control

## C[C@]12CC[C@@H]3c4ccc(OC(=O)Cc5ccc(N(CCCl)CCCl)cc5)cc4CC[C@H]3[C@@H]1CC[C@@H]2OC(=O)Cc1ccc(N(CCCl)CCCl)cc1
[4]
  T/C: 104 % of control
[3]
  T/C: 92 % of control and 103 % of control
[5]
  T/C: 121 % of control and 103 % of control
[6]
  T/C: 90 % of control and 93 % of control
[7]
  T/C: 104 % of control
[8]
  T/C: 92 % of control and 103 % of control

## NC(=O)CCC(NC(=O)OCc1ccccc1)C(=O)NCC(=O)O (stereo not drawn)
dose: 12.0 mg/kg/injection, schedule: Q01DX009 (ip), vehicle: Klucel (hydroxypropylcellulose) (HPC)
  T/C: 110 % of control
[3]
  T/C: 98 % of control
[5]
  T/C: 118 % of control
[6]
  T/C: 95 % of control
[7]
  T/C: 98 % of control
[8]
  T/C: 103 % of control

## COc1cccc2c1C(=O)c1c(O)c3c(c(O)c1C2=O)C[C@@](O)(C(C)=O)C[C@@H]3OC1CC(N2CCOCC2)C(O)C(C)O1 (stereo partly drawn)
dose: 0.06 mg/kg/injection, schedule: Q01DX001 (ip), vehicle: water
  T/C: 120 % of control
dose: 0.12 mg/kg/injection, schedule: Q01DX001 (ip), vehicle: water
  T/C: 123 % of control
dose: 62.5 micrograms/kg/injection, schedule: Q01DX001 (ip), vehicle: water
  T/C: 113 % of control
dose: 125.0 micrograms/kg/injection, schedule: Q01DX001 (ip), vehicle: water
  T/C: 122 % of control

## COc1cc2c(c(OC)c1OC)-c1cccc(=O)cc1C(NC(C)=O)CC2 (stereo not drawn)
dose: 1.25 mg/kg/injection, schedule: Q01DX009 (ip), vehicle: water
  T/C: 98 % of control
dose: 2.5 mg/kg/injection, schedule: Q01DX009 (ip), vehicle: saline
  T/C: 97 % of control
dose: 2.5 mg/kg/injection, schedule: Q01DX009 (ip), vehicle: water
  T/C: 102 % of control
dose: 5.0 mg/kg/injection, schedule: Q01DX009 (ip), vehicle: saline
  T/C: 100 % of control
dose: 5.0 mg/kg/injection, schedule: Q01DX009 (ip), vehicle: water
  T/C: 97 % of control
dose: 10.0 mg/kg/injection, schedule: Q01DX009 (ip), vehicle: saline
  T/C: 116 % of control
dose: 10.0 mg/kg/injection, schedule: Q01DX009 (ip), vehicle: water
  T/C: 96 % of control
dose: 20.0 mg/kg/injection, schedule: Q01DX009 (ip), vehicle: saline
  T/C: 99 % of control
dose: 20.0 mg/kg/injection, schedule: Q01DX009 (ip), vehicle: water
  T/C: 103 % of control
dose: 40.0 mg/kg/injection, schedule: Q01DX009 (ip), vehicle: saline
  T/C: 103 % of control

## C(=N/NC1=NCCN1)/c1c2ccccc2c(/C=N\NC2=NCCN2)c2ccccc12
dose: 3.12 mg/kg/injection, schedule: Q01DX009 (ip), vehicle: saline
  T/C: 183 % of control
[1]
  T/C: 189 % of control
[2]
  T/C: 179 % of control

## O=c1ccc(N=Nc2ccccc2)ccc1Cl
dose: 0.25 mg/kg/injection, schedule: Q01DX009 (ip), vehicle: Klucel (hydroxypropylcellulose) (HPC)
  T/C: 98 % of control
dose: 0.5 mg/kg/injection, schedule: Q01DX009 (ip), vehicle: Klucel (hydroxypropylcellulose) (HPC)
  T/C: 93 % of control
dose: 1.0 mg/kg/injection, schedule: Q01DX009 (ip), vehicle: Klucel (hydroxypropylcellulose) (HPC)
  T/C: 100 % of control

## COc1cccc2c1C(=O)c1c(O)c3c(c(O)c1C2=O)C[C@@](O)(C(=O)CO)C[C@@H]3OC1CC(N)C(O)C(C)O1 (stereo partly drawn)
dose: 0.12 mg/kg/injection, schedule: Q01DX009 (ip), vehicle: water
  T/C: 166 % of control
dose: 0.13 mg/kg/injection, schedule: Q01DX009 (ip), vehicle: water
  T/C: 195 % of control
dose: 0.25 mg/kg/injection, schedule: Q01DX009 (ip), vehicle: water
  T/C: 188 % of control and 212 % of control and 252 % of control
dose: 0.5 mg/kg/injection, schedule: Q01DX001 (ip), vehicle: saline
  T/C: 152 % of control and 159 % of control
dose: 0.5 mg/kg/injection, schedule: Q01DX009 (ip), vehicle: water
  T/C: 226 % of control and 247 % of control and 285 % of control
dose: 1.0 mg/kg/injection, schedule: Q01DX001 (ip), vehicle: saline
  T/C: 165 % of control and 193 % of control
dose: 1.0 mg/kg/injection, schedule: Q01DX009 (ip), vehicle: water
  T/C: 264 % of control and 285 % of control and 320 % of control
dose: 2.0 mg/kg/injection, schedule: Q01DX001 (ip), vehicle: saline
  T/C: 151 % of control and 192 % of control and 244 % of control
dose: 2.0 mg/kg/injection, schedule: Q01DX005 (ip), vehicle: saline
  T/C: 326 % of control
dose: 2.0 mg/kg/injection, schedule: Q01DX009 (ip), vehicle: water
  T/C: 229 % of control and 278 % of control and 285 % of control
dose: 4.0 mg/kg/injection, schedule: Q01DX001 (iv), vehicle: saline
  T/C: 109 % of control
dose: 4.5 mg/kg/injection, schedule: Q01DX001 (ip), vehicle: saline
  T/C: 195 % of control
dose: 9.0 mg/kg/injection, schedule: Q01DX001 (ip), vehicle: saline
  T/C: 174 % of control and 255 % of control
dose: 18.0 mg/kg/injection, schedule: Q01DX001 (ip), vehicle: saline
  T/C: 103 % of control
dose: 10.0 micrograms/kg/injection, schedule: Q01DX005 (ip), vehicle: saline
  T/C: 100 % of control
dose: 10.0 micrograms/mouse/injection, schedule: Q01DX005 (ip), vehicle: saline
  T/C: 220 % of control
dose: 20.0 micrograms/kg/injection, schedule: Q01DX005 (ip), vehicle: saline
  T/C: 116 % of control
dose: 20.0 micrograms/mouse/injection, schedule: Q01DX005 (ip), vehicle: saline
  T/C: 197 % of control
dose: 40.0 micrograms/mouse/injection, schedule: Q01DX005 (ip), vehicle: saline
  T/C: 273 % of control
